Results taken from US9884843B2 (Peloton Therapeutics, Inc., priority 2013, dated 2018).

target: HIF-2α HIS TAG-PASB Domain (Homo sapiens, UniProt Q99814); assay: biochemical; type: binding; details: displacement of Compound 120 probe; mean; read-out: Mean SPA IC50
From the text: The term “scintillation proximity assay” (SPA) refers to a homogenous assay in which light is emitted when a radiolabeled ligand is brought into close proximity to a radiosensitive bead. The assay typically contains a target protein that contains a tag (e.g., His Tag, Glutathione S-transferase Tag). The tag on the protein is used to bind the target protein to the scintillation bead. Radiolabeled ligand (e.g., labeled with tritium) that binds to the protein is now in close proximity to the bead, and when the raidolabel (e.g., tritium) decays, the high energy particle hits the bead resulting in the emission of light that is detected by a detector, such as photomultiplier tube or CCD camera. When unlabeled ligands or compounds that bind to the protein are used in the assay, they displace the radiolabeled ligand, resulting in loss of signal.
The total assay volume was about 100 μL in the following configuration: 2-μL compound in DMSO, 88 μL buffer with protein and probe and 10 μL of SPA beads. […] To each compound, 88 μL of the buffer solution was then added. […] The percent inhibition was determined and IC50 values were calculated using the Dotmatics system based on the following equation: % inhibition=[(high control−sample)/(high control−low control)]×100.

Chain of HIF-2α HIS TAG-PASB Domain (Q99814 whole entry, looked up, the tested form may be a part): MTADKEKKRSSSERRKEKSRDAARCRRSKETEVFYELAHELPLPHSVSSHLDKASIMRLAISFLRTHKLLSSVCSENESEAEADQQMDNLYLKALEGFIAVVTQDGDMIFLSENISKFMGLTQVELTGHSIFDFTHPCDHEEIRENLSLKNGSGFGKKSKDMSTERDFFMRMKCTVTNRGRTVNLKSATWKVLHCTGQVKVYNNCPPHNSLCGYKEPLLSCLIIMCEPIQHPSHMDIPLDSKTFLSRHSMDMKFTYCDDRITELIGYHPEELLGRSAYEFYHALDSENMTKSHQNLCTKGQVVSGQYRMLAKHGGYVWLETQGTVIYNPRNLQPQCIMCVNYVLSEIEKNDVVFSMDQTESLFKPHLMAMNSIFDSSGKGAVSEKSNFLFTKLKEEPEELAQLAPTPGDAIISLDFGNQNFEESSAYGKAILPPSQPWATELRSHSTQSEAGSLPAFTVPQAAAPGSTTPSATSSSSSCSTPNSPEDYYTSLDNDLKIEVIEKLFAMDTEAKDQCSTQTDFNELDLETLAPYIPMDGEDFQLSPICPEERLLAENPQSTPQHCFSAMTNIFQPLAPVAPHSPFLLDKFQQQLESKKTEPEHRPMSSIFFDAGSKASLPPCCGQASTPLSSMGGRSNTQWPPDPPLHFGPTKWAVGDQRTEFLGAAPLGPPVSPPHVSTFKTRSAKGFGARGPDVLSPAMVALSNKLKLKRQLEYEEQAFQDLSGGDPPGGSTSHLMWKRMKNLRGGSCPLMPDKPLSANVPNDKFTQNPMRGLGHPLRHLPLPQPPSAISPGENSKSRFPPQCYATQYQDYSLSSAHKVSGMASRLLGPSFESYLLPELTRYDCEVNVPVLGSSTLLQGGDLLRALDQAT

IC50 | SMILES
4600 nM | N#Cc1c(Oc2cc(F)cc(F)c2)ccc2c1C(O)(C(F)(F)F)CS2(=O)=O (centres unmarked) [Compound 102, 5-(3,5-Difluorophenoxy)-3-hydroxy-3-(trifluoromethyl)-2,3-dihydrobenzo[b]thiophene-4-carbonitrile 1,1-dioxide]
6300 nM | N#Cc1cc(F)cc(Oc2ccc3c(c2C#N)C(O)(C(F)(F)F)CS3(=O)=O)c1 (centres unmarked) [Compound 104, 5-(3-Cyano-5-fluorophenoxy)-3-hydroxy-3-(trifluoromethyl)-2,3-dihydrobenzo[b]thiophene-4-carbonitrile 1,1-dioxide]
16700 nM | CC1(O)c2c(ccc(OCc3ccccc3)c2C#N)S(=O)(=O)C1(F)F (centres unmarked) [Compound 113, 5-(Benzyloxy)-2,2-difluoro-3-hydroxy-3-methyl-2,3-dihydrobenzo[b]thiophene-4-carbonitrile 1,1-dioxide]
> 100000 nM | C=CC1(O)c2c(ccc(Oc3cc(F)cc(C#N)c3)c2C#N)S(=O)(=O)C1(F)F (centres unmarked) [Compound 114, 5-(3-Cyano-5-fluorophenoxy)-2,2-difluoro-3-hydroxy-3-vinyl-2,3-dihydrobenzo[b]thiophene-4-carbonitrile 1,1-dioxide]

SMILES | IC50
CC1(O)c2c(ccc(OC3CC(F)(F)C3)c2C#N)S(=O)(=O)C1(F)F (centres unmarked) [Compound 115, 5-(3,3-Difluorocyclobutoxy)-2,2-difluoro-3-hydroxy-3-methyl-2,3-dihydrobenzo[b]thiophene-4-carbonitrile 1,1-dioxide] | 6700 nM

same assay, conditions: unnumbered compounds listed by structure and name; read-out: IC50 value in SPA

IC50 | SMILES
> 100000 nM | N=S1(=O)CC(O)c2c1ccc(Oc1cc(F)cc(F)c1)c2Br (centres unmarked) [[4-bromo-5-(3,5-difluorophenoxy)-3-hydroxy-1-imino-2,3-dihydro-1λ^4-benzo[b]thiophene 1-oxide]
25000 to 100000 nM | N#CN=S1(=O)C[C@H](O)c2c1ccc(Oc1cc(F)cc(F)c1)c2Cl (stereo partly drawn) [[(3R)-4-chloro-5-(3,5-difluorophenoxy)-3-hydroxy-1-oxo-2,3-dihydrobenzothiophen-1-ylidene]cyanamide]

test system: 786-O-Hif-Luc cells; assay: Luciferase Assay (HIF responsive element reporter); type: cell-based; details: 786-O-Hif-Luc cells, about 24 hours; read-out: Mean Luciferease EC50
Procedure: A pool of infected cells were then selected against 2 μg/mL of puromycin (P8833, Sigma) for 10 days followed by limited dilution to select single clones.
Each concentration was tested in triplicate. After about 24 hours, luciferase activity was determined using ONE-Glo Luciferase Assay Reagent (E6110, Promega) following the manufacturer's recommended procedure. EC50 were calculated by using Dotmatics software.

EC50 | SMILES
17 nM | O=S1(=O)c2ccc(Oc3cc(F)cc(Cl)c3)c(C(F)F)c2C(O)C1(F)F (centres unmarked) [Compound 18, 5-(3-Chloro-5-fluorophenoxy)-4-(difluoromethyl)-2,2-difluoro-3-hydroxy-2,3-dihydrobenzo[b]thiophene 1,1-dioxide]
290 nM | N=S1(=O)c2ccc(Oc3cc(F)cc(F)c3)c(Br)c2C(O)C1(F)F (centres unmarked) [Compound 32, 4-bromo-5-(3,5-difluorophenoxy)-2,2-difluoro-3-hydroxy-1-imino-2,3-dihydro-1H-1λ^4-benzo[b]thiophene 1-oxide]
12 nM | [2H]C1(O)c2c(ccc(Oc3cc(F)cc(C#N)c3)c2C(F)F)S(=O)(=O)C1(F)F (centres unmarked) [Compound 40, 3-((4-(Difluoromethyl)-2,2-difluoro-3-hydroxy-1,1-dioxido-2,3-dihydrobenzo[b]thiophen-5-yl-3-d)oxy)-5-fluorobenzonitrile]

SMILES | EC50
N#Cc1cc(F)cc(Oc2ccc3c(c2C(F)F)C(O)C(F)(F)S3(=O)=O)c1 (centres unmarked) [Compound 29, 3-((4-(Difluoromethyl)-2,2-difluoro-3-hydroxy-1,1-dioxido-2,3-dihydrobenzo[b]thiophen-5-yl)oxy)-5-fluorobenzonitrile] | 4 nM
N#Cc1cc(F)cc(Oc2ccc3c(c2C(F)F)[C@@H](N)C(F)(F)S3(=O)=O)c1 [Compound 41, (R)-3-((3-Amino-4-(difluoromethyl)-2,2-difluoro-1,1-dioxido-2,3-dihydrobenzo[b]thiophen-5-yl)oxy)-5-fluorobenzonitrile] | 140 nM

same assay, conditions: 24 h, 786-O-Hif-Luc cells, about 24 hours; read-out: Mean Luciferease EC50

EC50 | SMILES
730 nM | O=S1(=O)CC(O)c2c1ccc(Oc1cc(F)cc(Cl)c1)c2C(F)F (centres unmarked) [Compound 15, 5-(3-Chloro-5-fluorophenoxy)-4-(difluoromethyl)-3-hydroxy-2,3-dihydrobenzo[b]thiophene 1,1-dioxide]
720 nM | O=S1(=O)CC(O)c2c1ccc(Oc1cc(F)cc(F)c1)c2C(F)F (centres unmarked) [Compound 24, 4-(Difluoromethyl)-5-(3,5-difluorophenoxy)-3-hydroxy-2,3-dihydrobenzo[b]thiophene 1,1-dioxide]
790 nM | N#Cc1c(Oc2cc(F)cc(F)c2)ccc2c1C(O)C(F)S2(=O)=O (centres unmarked) [Compound 44, 5-(3,5-Difluorophenoxy)-2-fluoro-3-hydroxy-2,3-dihydrobenzo[b]thiophene-4-carbonitrile 1,1-dioxide]
410 nM | COc1cc(F)cc(Oc2ccc3c(c2Br)[C@@H](O)C(F)(F)S3(=O)=O)c1 [Compound 80, (R)-4-Bromo-2,2-difluoro-5-(3-fluoro-5-methoxyphenoxy)-3-hydroxy-2,3-dihydrobenzo[b]thiophene 1,1-dioxide]
33 nM | N#Cc1cccc(Oc2ccc3c(c2Br)[C@@H](O)C(F)(F)S3(=O)=O)c1 [Compound 84, (R)-3-((4-bromo-2,2-difluoro-3-hydroxy-1,1-dioxido-2,3-dihydrobenzo[b]thiophen-5-yl)oxy)benzonitrile]
880 nM | N#Cc1cc(F)cc(Oc2ccc3c(c2F)C(O)C(F)(F)S3(=O)=O)c1 (centres unmarked) [Compound 88, 3-Fluoro-5-((2,2,4-trifluoro-3-hydroxy-1,1-dioxido-2,3-dihydrobenzo[b]thiophen-5-yl)oxy)benzonitrile]
310 nM | N#Cc1cc(Oc2ccc3c(c2C(F)F)[C@@H](O)C(F)(F)S3(=O)=O)ccc1F [Compound 91, (R)-5-((4-(Difluoromethyl)-2,2-difluoro-3-hydroxy-1,1-dioxido-2,3-dihydrobenzo[b]thiophen-5-yl)oxy)-2-fluorobenzonitrile]
6890 nM | O=S1(=O)c2ccc(Oc3cccc4cn[nH]c34)c(C(F)F)c2C(O)C1(F)F (centres unmarked) [Compound 95, 5-((1H-Indazol-7-yl)oxy)-4-(difluoromethyl)-2,2-difluoro-3-hydroxy-2,3-dihydrobenzo[b]thiophene 1,1-dioxide]
48 nM | CC1(O)c2c(ccc(Oc3cc(F)cc(C#N)c3)c2C#N)S(=O)(=O)C1(F)F (centres unmarked) [Compound 105, 5-(3-Cyano-5-fluorophenoxy)-2,2-difluoro-3-hydroxy-3-methyl-2,3-dihydrobenzo[b]thiophene-4-carbonitrile 1,1-dioxide]
6700 nM | N#CC1(COc2ccc3c(c2C(F)F)C(O)C(F)(F)S3(=O)=O)CC1 (centres unmarked) [Compound 109, 1-(((4-(difluoromethyl)-2,2-difluoro-3-hydroxy-1,1-dioxido-2,3-dihydrobenzo[b]thiophen-5-yl)oxy)methyl)cyclopropane-1-carbonitrile]
5400 nM | CC(C)Oc1ccc2c(c1C#N)C(C)(O)C(F)(F)S2(=O)=O (centres unmarked) [Compound 110, 2,2-Difluoro-3-hydroxy-5-isopropoxy-3-methyl-2,3-dihydrobenzo[b]thiophene-4-carbonitrile 1,1-dioxide]
800 nM | N[C@@H]1c2c(ccc(Oc3cc(F)cc(Br)c3)c2Br)S(=O)(=O)C1(F)F [Compound 116, (R)-3-Amino-4-bromo-5-(3-bromo-5-fluorophenoxy)-2,2-difluoro-2,3-dihydrobenzo[b]thiophene 1,1-dioxide]

same assay, conditions: 24 h, read-out: Mean Luciferease EC50

SMILES | EC50
O=S1(=O)CC(O)c2c1ccc(Oc1cc(F)cc(Cl)c1)c2Br (centres unmarked) [Compound 6, 4-Bromo-5-(3-chloro-5-fluorophenoxy)-3-hydroxy-2,3-dihydrobenzo[b]thiophene 1,1-dioxide] | 4850 nM
N#Cc1cc(F)cc(Oc2ccc3c(c2C(F)F)[C@H](O)C(F)(F)S3(=O)=O)c1 [Compound 34, (S)-3-((4-(Difluoromethyl)-2,2-difluoro-3-hydroxy-1,1-dioxido-2,3-dihydrobenzo[b]thiophen-5-yl)oxy)-5-fluorobenzonitrile] | 20 nM
